Laboratory results: patent US20080032985A1, “4-Substituted Quinoline Derivatives, Method and Intermediates for Their Preparation and Pharmaceutical Compositions Containing Them” (priority 2004, published 2008)
In brackets after ≈: the same amount, converted by molar mass.

What was measured:
[1] = system: E. faecalis ATCC S343211 vancomycin resistant; assay: MIC by dilutions in agar medium (NCCLS), Gram-positive; assay type: cell-based; details: Enterococcus faecalis; at 24 hours; agar dilution
Description: (§1) The method of dilutions in agar medium in agreement with the NCCLS recommendations is used for the determination of the minimum inhibitory concentrations (MIC) expressed in mg/l.
(§2) The activities of the compounds of examples 5, 8, 10-13 are grouped together in the following table: […]

[2] = system: S. aureus AS 5155 methicillin resistant; assay: as above; assay type: cell-based; details: Staphylococcus aureus; at 24 hours; agar dilution
Description: as §1, §2

[3] = system: S. aureus IP8203 sensitive; assay: as above; assay type: cell-based; details: Staphylococcus aureus; at 24 hours; agar dilution
Description: as §1, §2

[4] = system: S. pneumoniae 6254-01 MLSB resistant; assay: as above; assay type: cell-based; details: Streptococcus pneumoniae; at 24 hours; agar dilution
Description: as §1, §2

[5] = system: H. influenzae MDK 1528 sensitive; assay: MIC by dilutions in agar medium (NCCLS), Gram-negative; assay type: cell-based; details: Haemophilus influenzae; at 48 hours; agar dilution
Description: as §1, §2

[6] = system: M. catarrhalis IPA151 sensitive; assay: as above; assay type: cell-based; details: Moraxella catarrhalis, IPA151SENSITIVE; at 48 hours; agar dilution
Description: as §1, §2

Structure (SMILES): COc1ccc2ncc(F)c(CCCC(CNC/C=C/c3cc(F)ccc3F)C(=O)O)c2c1 (racemic) [Example 5, (RS)-2-{[(E)-3-(2,5-difluorophenyl)allylamino]methyl}-5-(3-fluoro-6-methoxyquinolin-4-yl)pentanoic acid]
- MIC [1]: 0.25 to 1 µg/mL (≈ 0.545 to 2.18 µM)
- MIC [2]: 0.12 to 1 µg/mL (≈ 0.262 to 2.18 µM)
- MIC [3]: 0.12 to 1 µg/mL (≈ 0.262 to 2.18 µM)
- MIC [4]: 0.25 to 0.5 µg/mL (≈ 0.545 to 1.09 µM)
- MIC [5]: 2 to 8 µg/mL (≈ 4.36 to 17.4 µM)
- MIC [6]: 0.5 to 4 µg/mL (≈ 1.09 to 8.72 µM)

Structure (SMILES): COc1ccc2ncc(F)c(CCCC(CNCCCc3cc(F)ccc3F)C(=O)O)c2c1 (racemic) [Example 8, (RS)-2-{[3-(2,5-difluorophenyl)propylamino]methyl}-5-(3-fluoro-6-methoxyquinolin-4-yl)pentanoic acid]
- MIC [1]: 0.25 to 1 µg/mL (≈ 0.543 to 2.17 µM)
- MIC [2]: 0.12 to 1 µg/mL (≈ 0.261 to 2.17 µM)
- MIC [3]: 0.12 to 1 µg/mL (≈ 0.261 to 2.17 µM)
- MIC [4]: 0.25 to 0.5 µg/mL (≈ 0.543 to 1.09 µM)
- MIC [5]: 2 to 8 µg/mL (≈ 4.34 to 17.4 µM)
- MIC [6]: 0.5 to 4 µg/mL (≈ 1.09 to 8.69 µM)

Structure (SMILES): COc1ccc2ncc(F)c(CCCC(CN(C)C/C=C/c3cc(F)ccc3F)C(=O)[O-])c2c1.[Na+] (racemic) [Example 10, Sodium (RS)-2-({N-[(E)-3-(2,5-difluorophenyl)allyl]-N-methylamino}methyl)-5-(3-fluoro-6-methoxyquinolin-4-yl)pentanoate]
- MIC [1]: 0.25 to 1 µg/mL
- MIC [2]: 0.12 to 1 µg/mL
- MIC [3]: 0.12 to 1 µg/mL
- MIC [4]: 0.25 to 0.5 µg/mL
- MIC [5]: 2 to 8 µg/mL
- MIC [6]: 0.5 to 4 µg/mL

Structure (SMILES): COc1ccc2ncc(F)c(CCCC(CNCCSc3cccs3)C(=O)O)c2c1 (racemic) [Example 11, (RS)-5-(3-Fluoro-6-methoxyquinolin-4-yl)-2-{[2-(thiophen-2-ylsulfanyl)ethylamino]methyl}pentanoic acid]
- MIC [1]: 0.25 to 1 µg/mL (≈ 0.557 to 2.23 µM)
- MIC [2]: 0.12 to 1 µg/mL (≈ 0.268 to 2.23 µM)
- MIC [3]: 0.12 to 1 µg/mL (≈ 0.268 to 2.23 µM)
- MIC [4]: 0.25 to 0.5 µg/mL (≈ 0.557 to 1.11 µM)
- MIC [5]: 2 to 8 µg/mL (≈ 4.46 to 17.8 µM)
- MIC [6]: 0.5 to 4 µg/mL (≈ 1.11 to 8.92 µM)

Structure (SMILES): COc1ccc2ncc(F)c(CCCC(CNCCSc3cc(F)ccc3F)C(=O)O)c2c1 (racemic) [Example 12, (RS)-2-{[2-(2,5-Difluorophenylsulfanyl)ethylamino]-methyl}-5-(3-fluoro-6-methoxyquinolin-4-yl)pentanoic acid]
- MIC [1]: 0.25 to 1 µg/mL (≈ 0.522 to 2.09 µM)
- MIC [2]: 0.12 to 1 µg/mL (≈ 0.251 to 2.09 µM)
- MIC [3]: 0.12 to 1 µg/mL (≈ 0.251 to 2.09 µM)
- MIC [4]: 0.25 to 0.5 µg/mL (≈ 0.522 to 1.04 µM)
- MIC [5]: 2 to 8 µg/mL (≈ 4.18 to 16.7 µM)
- MIC [6]: 0.5 to 4 µg/mL (≈ 1.04 to 8.36 µM)

Structure (SMILES): COc1ccc2ncc(F)c(CCCC(CNCCOc3cc(F)ccc3F)C(=O)O)c2c1 (racemic) [Example 13, (RS)-2-{[2-(2,5-Difluorophenoxy)ethylamino]methyl}-5-(3-fluoro-6-methoxyquinolin-4-yl)pentanoic acid]
- MIC [1]: 0.25 to 1 µg/mL (≈ 0.541 to 2.16 µM)
- MIC [2]: 0.12 to 1 µg/mL (≈ 0.259 to 2.16 µM)
- MIC [3]: 0.12 to 1 µg/mL (≈ 0.259 to 2.16 µM)
- MIC [4]: 0.25 to 0.5 µg/mL (≈ 0.541 to 1.08 µM)
- MIC [5]: 2 to 8 µg/mL (≈ 4.32 to 17.3 µM)
- MIC [6]: 0.5 to 4 µg/mL (≈ 1.08 to 8.65 µM)

Structure (SMILES): COc1ccc2ncc(F)c(CCCC(CN(C/C=C/c3cc(F)ccc3F)CCF)C(=O)O)c2c1 (racemic) [Example 14, (RS)-2-{[N-[(E)-3-(2,5-difluorophenyl)allyl]-N-(2-fluoroethyl)amino]methyl}-5-(3-fluoro-6-methoxy-quinolin-4-yl)pentanoic acid]
- melting point: 120 °C

Structure (SMILES): COc1ccc2ncc(F)c(CCCC(CNC/C=C/c3cc(F)ccc3F)C(=O)O)c2c1 (single isomer, unassigned) [Example 6, 2-{[(E)-3-(2,5-difluorophenyl)allylamino]methyl}-5-(3-fluoro-6-methoxyquinolin-4-yl)pentanoic acid]
- melting point: 168 °C

Structure (SMILES): COc1ccc2ncc(F)c(CCCC(CNC/C=C/c3cc(F)ccc3F)C(=O)O)c2c1 (single isomer, unassigned) [Example 7, 2-{[(E)-3-(2,5-difluorophenyl)allylamino]methyl}-5-(3-fluoro-6-methoxyquinolin-4-yl)pentanoic acid]
- melting point: 166 °C
